# Data from publication PMC6925188, “PBRM1 acts as a p53 lysine-acetylation reader to suppress renal tumor growth” (Nature Communications, 2019).
# Where no end group is shown, it is not given here. The star is where a group is joined. Biotin = O=C1N[C@H]2[C@H](CS[C@H]2CCCCC(=O)*)N1
# What was measured:
# [1] = test system: endogenous PBRM1; assay: Peptide pull-down, endogenous PBRM1 from cell lysates; type: binding; conditions: H1299 lysate, Supplementary Fig. 2e, f
# Protocol: Fig. 2 Acetylation on K382 of p53 promotes PBRM1 binding. a Schematic depiction of the functional domains of p53 and truncated constructs. FL full-length, TAD transactivation domain, PRD proline-rich domain, DBD DNA-binding domain, TD tetramerization domain, CTD C-terminal domain. b HEK293T cells were transfected with vectors, Flag-PBRM1, Myc-p53 and Myc-p53 truncated constructs. After immunoprecipitation with Flag-M2 beads, the inputs and eluates were analyzed by immunoblots. c Vectors, Flag-PBRM1, Myc-p53 and HA-Tip60, HA-PCAF, HA-CBP or HA-p300 were transfected into HEK293T cells as indicated. Lysates were used for anti-Flag immunoprecipitation and 3X Flag peptide elution. The inputs and eluates were analyzed by immunoblots. d HEK293T cells were transfected with Flag-PBRM1, Myc-p53 and HA-p300. The amount of HA-p300 was titrated as indicated. Lysates were used in immunoprecipitations with Flag-M2 beads, and inputs and eluates were analyzed by immunoblots. e Vectors, Flag-PBRM1, HA-p300 and Myc-p53 (WT) or Myc-p53 6KR mutant were transfected into HEK293T cells as indicated. Lysates were used for anti-Flag immunoprecipitation and 3X Flag peptide elution. Inputs and eluates were examined by immunoblots. […] The peptides were pulled down with streptavidin beads and the associated proteins were analyzed by immunoblots. […]
# [2] = test system: BDs of PBRM1; conditions: shorter peptide, residues 375–388, 14 residues; cited from earlier work
# Description: Although acetylation is indispensable for p53′s transcriptional function and SWI/SNF complexes function as transcriptional co-factors, no acetylation-dependent interaction has been reported between p53 and SWI/SNF complexes. In this study, we report that acetylation on p53 lysine 382 enhanced the interaction between PBRM1 and p53 via recognition by PBRM1 BD4. […] The difference is likely due to the length of the peptides used. In our experiments, the p53 peptide used was much longer than theirs (368–393, 26 re ...
# [3] = test system: PBRM1-p53 interaction; assay: Co-immunoprecipitation of Flag-PBRM1 and Myc-p53 (anti-Flag M2) in H1299 cells; type: cell-based
# Description: Fig. 1 PBRM1 and p53 display a physical association that is enhanced after DNA damage. a U2OS cells (left) and HEK293T cells (right) were transfected with vector or Flag-PBRM1 and harvested for immunoprecipitation with Flag-M2 beads and elution with 3X Flag peptide. […] Lysates were subjected to immunoprecipitation with Flag-M2 beads. […] Lysates were immunoprecipitated with p53 antibody. The bound PBRM1 and p53 were examined by immunoblots. Source data are provided as a Source Data file.
# For anti-Flag immunoprecipitation, cell pellets harvested from one 10 cm culture dish were resuspended in 500 µl hypotonic buffer (10 mM Tris-HCl, pH 8.0, 1.5 mM MgCl2, 10 mM KCl) with protease and phosphatase inhibitors, 2 μM TSA and 10 mM NAM, and samples were incubated on ice for 15 min. Twenty-five microliters of Triton X-100 was added and samples were vortexed for 10 s. After centrifuging for 30 s at 14,000 × g, supernatants were removed and pellets were resuspended in 100 µl hypertonic buffer (20 mM Tris-HCl pH 8.0, 420 mM KCl, 1.5 mM MgCl2, 20% (v/v) glycerol) with protease and phosphatase inhibitors, 2 μM TSA and 10 mM NAM and vortexed for 10 s. Pellets were incubated on ice for 40 min and vortexed for 15 s every 10 min. After centrifuging for 10 min at 14,000 × g, supernatants were collected and diluted with 300 µl EBC buffer (50 mM Tris-HCl (pH 7.5), 120 mM NaCl, 0.5% NP-40) with protease and phosphatase inhibitors, 2 μM TSA and 10 mM NAM. […] Beads were washed four times with EBC buffer and eluted with 3X Flag peptide (F4799, Sigma-Aldrich) overnight at 4 °C. The input and Flag-elution were analyzed by SDS-PAGE and immunoblot.
# Supplementary Figure 2. […]
# a. Vectors, Flag-PBRM1 or Myc-p53 were transfected into H1299 cells as indicated, and treated with 5 µM nicotinamide or vehicle. Lysates were used for anti-Flag immunoprecipitation and 3X Flag peptide elution. The inputs and eluates were immunoblotted with the indicated antibodies. […]
# Flag-PBRM1, wildtype or K382Q mutated Myc-p53 were transfected into H1299 cells with indicated combinations. Lysates were used for anti-Flagimmunoprecipitation followed by Flag peptide elution. […]
# [4] = test system: ACHN, Caki-1 and Ren-01 cells; assay: Immunoblot of p53 targets, kidney cancer cells with PBRM1 shRNA knockdown; type: cell-based; conditions: 10 μM Nutlin-3a
# Protocol: Lysates were analyzed by immunoblots. c RCC4 cells with or without p53 KO were transfected with vector or Flag-PBRM1 at the indicated amounts. […] Cells were harvested for RT-qPCR (g) or ChIP followed by qPCR (h). […] Representative data is shown in i. Quantification of cell cycle phase is shown in j. Source data are provided as a Source Data file.
# After washing with ice-cold PBS, cells were scraped on ice and centrifuged at 10,000 × g for 1 min at 4 °C. For immunoblot analysis, cell pellets were lysed in 1% SDS containing a protease inhibitor cocktail followed by sonication with a FB50 sonic dismembrator (Fisher Scientific) at 20% amplitude for 15 s twice. After centrifuging for 10 min at 14,000 × g, the supernatants were combined with 5X SDS loading buffer (5% mercaptoethanol, 0.05% Bromophenol blue, 30% glycerol, 10% SDS, 250 mM Tris-HCl (pH 6.8)), boiled for 5 min and used in SDS-PAGE. After standard western blot procedures, the blots were developed using the ImageQuant LAS 4000 (GE healthcare Life Sciences) or ChemiDoc MP Imaging System (Bio-rad) with HyGLO™ Chemiluminescent HRP Detection Reagent (E2500, Denville Scientific) or Immobilon™ Western Chemiluminescent HRP Substrate (WBKLS0500, Millipore). […]
# the indicated times. Lysates were analyzed via immunoblots. b. […]
# were analyzed by immunoblots. c. […]
# Lysates were analyzed via immunoblots. e. […]
# Lysates were analyzed via immunoblots. f, g, h. […]
compound,measurement,setting,value
"K382Q: Biot-K382Q (368-393) p53 peptide (Biotin-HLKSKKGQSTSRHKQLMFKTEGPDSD; UniProt P04637 368-393, looked up, variant K382Q)",binding to PBRM1 of K382Q peptide,[1],failed to mimic K382Ac to enhance binding to PBRM1
"p53 K382Ac peptide (375–388): p53 K382Ac peptide of previous report, 375–388, 14 residues (QSTSRHKK(Ac)LMFKTE; not fully specified; UniProt P04637 375-388, looked up, fragment)",binding of PBRM1 BDs to p53 K382Ac peptide,[2],did not bind
NC(=O)c1cccnc1 [Nicotinamide],PBRM1-p53 interaction,"[3]; H1299, 5 µM nicotinamide",enhanced
COc1ccc(C2=N[C@@H](c3ccc(Cl)cc3)[C@@H](c3ccc(Cl)cc3)N2C(=O)N2CCNC(=O)C2)c(OC(C)C)c1 [Nutlin-3a],p21 induction by p53 with PBRM1 knockdown,[4],reduced
bleomycin,PBRM1 and exogenous p53 protein levels,"[3]; H1299, etoposide 50 μM or bleomycin 10 μg/ml",neither the PBRM1 nor the exogenous p53 levels changed
same,PBRM1-p53 interaction,"[3]; H1299 co-transfected with PBRM1 and p53, bleomycin 10 μg/ml",enhanced
